From patent publication US7566699B2, “Fused heterocyclic derivative, medicinal composition containing the same, and medicinal use thereof” (Kissei Pharmaceutical Co., Ltd., priority 2003, dated 2009)
pIC50: −log10 of the molar value.

How the values were obtained:
[1] = biological target: T1, human SGLT2 (Homo sapiens, UniProt P31639); experiment: Assay for inhibitory effects on human SGLT2 activity (uptake of methyl-α-D-glucopyranoside); format: cell-based; conditions: inhibition of uptake of 14C-labeled methyl-α-D-glucopyranoside (1 mM) in CS2-5E cells (CHO-K1) stably expressing human SGLT2, 37° C., 1 hour
T1 construct: expressed in transfected cells
T1 sequence (P31639 1-672): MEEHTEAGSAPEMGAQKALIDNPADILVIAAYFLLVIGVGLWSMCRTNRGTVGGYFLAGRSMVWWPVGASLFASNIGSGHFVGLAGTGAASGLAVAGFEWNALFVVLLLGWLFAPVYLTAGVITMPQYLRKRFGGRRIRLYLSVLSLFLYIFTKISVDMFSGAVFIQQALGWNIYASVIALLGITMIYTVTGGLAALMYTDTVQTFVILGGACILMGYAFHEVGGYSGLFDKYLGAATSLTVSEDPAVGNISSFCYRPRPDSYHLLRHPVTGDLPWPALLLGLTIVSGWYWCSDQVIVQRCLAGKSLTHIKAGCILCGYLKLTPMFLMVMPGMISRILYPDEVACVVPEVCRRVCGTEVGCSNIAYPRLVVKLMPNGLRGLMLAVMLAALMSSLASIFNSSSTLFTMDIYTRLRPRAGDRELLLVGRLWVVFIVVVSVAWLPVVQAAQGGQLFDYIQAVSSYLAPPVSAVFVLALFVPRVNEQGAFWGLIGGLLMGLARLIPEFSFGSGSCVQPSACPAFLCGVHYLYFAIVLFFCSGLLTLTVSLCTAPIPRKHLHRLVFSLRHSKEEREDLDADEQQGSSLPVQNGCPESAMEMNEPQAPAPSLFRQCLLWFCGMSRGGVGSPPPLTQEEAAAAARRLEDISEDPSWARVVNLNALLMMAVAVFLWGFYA
Procedure: Assay for Inhibitory Effects on Human SGLT2 Activity
1) Cloning and Construction of the Vector Expressing Human SGLT2
(§1) The cDNA library was prepared for PCR amplification by reverse transcription from total RNA deprived from human kidney (Ori gene) using oligo-dT as a primer. Using this cDNA library as a template, the DNA fragment coding 2 to 2039 bp of human SGLT2 (ACCESSION: M95549, M95299), which was reported by R. G. Wells et al., was amplified by PCR method and inserted into the multi-cloning site of pcDNA3.1(−) (Invitrogen). The DNA sequence inserted was perfectly matched to the previously reported sequence.
2) Establishment of Cell Line Stably Expressing Human SGLT2
(§2) The expression vector of human SGLT2 was digested by Sca I into a linear DNA. The linear DNA was transfected into CHO-K1 cells by means of lipofection (Effectene Transfection Reagent: QIAGEN). Neomycin resistant cell lines were selected by culture in the medium containing G418 (1 mg/mL, LIFE TECHNOLOGIES), and then the activity against the uptake of methyl-α-D-glucopyranoside was measured by the method described below. […] CS2-5E cells were cultured in the presence of G418 at 200 μg/mL.
3) Measurement of the Inhibitory Activity Against the Uptake of Methyl-α-D-glucopyranoside (α-MG)
CS2-5E cells were seeded into a 96-well culture plate at a density of 3×10^4 cells/well and cultured for 2 days, and were used in the uptake assay. A mixture of non-labeled (Sigma) and ^14C-labeled α-MG (Amersham Pharmacia Biotech) was added to the uptake buffer (pH 7.4; containing 140 mM sodium chloride, 2 mM potassium chloride, 1 mM calcium chloride, 1 mM magnesium chloride, 10 mM 2-[4-(2-hydroxyethyl)-1-piperazinyl]ethane sulfonic acid and 5 mM tris(hydroxymethyl)aminomethane) at the final concentration of 1 mM. […] Radioactivity was measured by means of micro-scintillation counter TopCount (Packard). One hundred % was set to the difference between the uptake in the control group and the basal uptake, and the uptake of methyl α-D-glucopyranoside at each drug concentration were calculated. […]

[2] = biological target: T2, human SGLT1 (Homo sapiens, UniProt P13866); experiment: Assay for inhibitory effects on human SGLT1 activity (uptake of methyl-α-D-glucopyranoside); format: cell-based; conditions: inhibition of uptake of 14C-labeled methyl-α-D-glucopyranoside (1 mM) in CS1-5-11D cells stably expressing human SGLT1, 37° C., 1 hour
T2 construct: expressed in transfected cells
T2 sequence (P13866 1-664): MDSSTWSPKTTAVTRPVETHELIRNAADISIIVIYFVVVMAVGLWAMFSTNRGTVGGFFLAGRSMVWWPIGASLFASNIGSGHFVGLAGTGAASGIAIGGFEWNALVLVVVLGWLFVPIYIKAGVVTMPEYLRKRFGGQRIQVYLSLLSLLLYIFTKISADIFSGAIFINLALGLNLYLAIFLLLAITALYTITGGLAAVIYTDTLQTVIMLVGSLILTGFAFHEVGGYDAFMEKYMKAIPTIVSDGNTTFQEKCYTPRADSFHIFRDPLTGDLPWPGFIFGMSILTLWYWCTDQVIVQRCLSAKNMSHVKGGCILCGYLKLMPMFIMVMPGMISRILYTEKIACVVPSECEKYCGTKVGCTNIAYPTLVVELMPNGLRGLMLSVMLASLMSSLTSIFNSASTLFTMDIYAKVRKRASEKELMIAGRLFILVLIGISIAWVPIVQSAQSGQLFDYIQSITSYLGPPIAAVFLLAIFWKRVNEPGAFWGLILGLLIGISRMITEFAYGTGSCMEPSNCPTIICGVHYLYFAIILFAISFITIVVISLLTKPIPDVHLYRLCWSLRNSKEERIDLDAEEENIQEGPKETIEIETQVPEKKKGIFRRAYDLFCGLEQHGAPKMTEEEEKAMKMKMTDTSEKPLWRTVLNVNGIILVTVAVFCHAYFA
Procedure: Assay for Inhibitory Effects on Human SGLT1 Activity
1) Cloning and Construction of the Vector Expressing Human SGLT1
as §1, with “small intestine” for “kidney”, “1” for “2”, “2005” for “2039”, “SGLT1” for “SGLT2”, “M24847),” for “M95549, M95299),”, “Hediger” for “R. G. Wells”
2) Establishment of Cell Line Stably Expressing Human SGLT1
as §2, with “SGLT1” for “SGLT2”, “[…]” for “CHO-K1”, “methyl-αD-glucopyranoside” for “methyl-α-D-glucopyranoside”, “CS1-5-11D” for “CS2-5E”, “μg/mL. […]” for “μg/mL.”
CS1-5-11D cells were seeded into a 96-well culture plate at a density of 3×10^4 cells/well and cultured for 2 days, and were used in the uptake assay. […] Radioactivity was measured by means of micro-scintillation counter TopCount (Packard). […]

Row | Compound | pIC50 [1] | pIC50 [2]
1 | OC[C@H]1O[C@@H](Oc2cccc3occ(CCc4ccccc4)c23)[C@H](O)[C@@H](O)[C@@H]1O [Example 2, 4-(β-D-Glucopyranosyloxy)-3-(2-phenylethyl)benzofuran] | 8.22 | 
2 | Cc1ccccc1CCc1coc2cccc(O[C@@H]3O[C@H](CO)[C@@H](O)[C@H](O)[C@H]3O)c12 [Example 3, 4-(β-D-Glucopyranosyloxy)-3-[2-(2-methylphenyl)ethyl]-benzofuran] | 7.39 | 
3 | OC[C@H]1O[C@@H](Oc2cc(O)cc3occ(CCc4ccccc4)c23)[C@H](O)[C@@H](O)[C@@H]1O [Example 7, 4-(β-D-Glucopyranosyloxy)-6-hydroxy-3-(2-phenylethyl)benzofuran] |  | 7.82
4 | OC[C@H]1O[C@@H](Oc2cccc3occ(CCc4ccc(OCCCNC(CO)(CO)CO)cc4)c23)[C@H](O)[C@@H](O)[C@@H]1O [Example 24, 4-(β-D-Glucopyranosyloxy)-3-[2-(4-{3-[2-hydroxy-1,1-bis(hydroxymethyl)ethylamino]propoxy}phenyl)ethyl]benzofuran] |  | 7.60
5 | OC[C@H]1O[C@@H](Oc2cccc3occ(CCc4ccncc4)c23)[C@H](O)[C@@H](O)[C@@H]1O [Example 43, 4-(β-D-Glucopyranosyloxy)-3-[2-(4-pyridyl)ethyl]benzofuran] | 7.92 | 
